# Laboratory results as given in article PMC11968843, “Sulphostin-inspired N-phosphonopiperidones as selective covalent DPP8 and DPP9 inhibitors” (Nature Communications, 2025).
# Where “and” joins values, the source holds several entries; their conditions need not be identical. Equal values may be shown once. Read-outs that look alike come from different tables or passages of the source.
# Legend:
# Type in all cases: biochemical
# DPP4 [1] = biological target: T1, DPP4 (Homo sapiens, UniProt P27487); assay: biochemical; details: for DPP4 activity [%]: replicates
# T1 construct: purchased Proteros Biostructures GmbH, Germany
# T1 sequence (P27487 whole entry): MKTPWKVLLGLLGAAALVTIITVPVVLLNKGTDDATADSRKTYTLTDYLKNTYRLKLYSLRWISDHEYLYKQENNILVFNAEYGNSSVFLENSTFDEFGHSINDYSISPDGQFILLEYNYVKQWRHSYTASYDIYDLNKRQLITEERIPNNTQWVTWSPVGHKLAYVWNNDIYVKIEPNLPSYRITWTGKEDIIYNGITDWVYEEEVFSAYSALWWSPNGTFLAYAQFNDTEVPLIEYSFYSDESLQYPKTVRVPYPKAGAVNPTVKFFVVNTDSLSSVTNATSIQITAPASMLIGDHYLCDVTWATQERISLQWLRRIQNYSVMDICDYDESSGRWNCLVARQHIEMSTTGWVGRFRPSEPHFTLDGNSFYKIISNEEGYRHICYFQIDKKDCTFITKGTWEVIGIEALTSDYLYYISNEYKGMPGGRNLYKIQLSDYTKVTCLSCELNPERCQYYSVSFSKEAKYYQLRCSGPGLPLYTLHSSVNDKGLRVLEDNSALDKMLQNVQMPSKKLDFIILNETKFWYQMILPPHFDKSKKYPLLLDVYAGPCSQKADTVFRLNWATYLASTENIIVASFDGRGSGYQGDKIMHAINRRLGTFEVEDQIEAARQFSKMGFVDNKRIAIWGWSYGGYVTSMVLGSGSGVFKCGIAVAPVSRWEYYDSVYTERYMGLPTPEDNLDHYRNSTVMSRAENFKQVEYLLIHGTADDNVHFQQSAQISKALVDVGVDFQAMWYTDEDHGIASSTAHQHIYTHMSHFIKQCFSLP
# Method in brief: (§1)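 Initial velocity of AMC release from fluorogenic GP-AMC substrate read for up to 60 min at 30 °C in HEPES/KOH pH 7.3 buffer with 1 mM DTT. Enzyme (10 nM) preincubated 45 min at 30 °C with inhibitor (0–100 μM, 1% DMSO). IC50 from four-parameter variable-slope fit of triplicates.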
# DPP8 [2] = biological target: T2, DPP8 (Homo sapiens, UniProt Q6V1X1); assay: biochemical; details: for DPP8 activity [%]: replicates
# T2 construct: purchased Proteros Biostructures GmbH, Germany
# T2 sequence (Q6V1X1 whole entry): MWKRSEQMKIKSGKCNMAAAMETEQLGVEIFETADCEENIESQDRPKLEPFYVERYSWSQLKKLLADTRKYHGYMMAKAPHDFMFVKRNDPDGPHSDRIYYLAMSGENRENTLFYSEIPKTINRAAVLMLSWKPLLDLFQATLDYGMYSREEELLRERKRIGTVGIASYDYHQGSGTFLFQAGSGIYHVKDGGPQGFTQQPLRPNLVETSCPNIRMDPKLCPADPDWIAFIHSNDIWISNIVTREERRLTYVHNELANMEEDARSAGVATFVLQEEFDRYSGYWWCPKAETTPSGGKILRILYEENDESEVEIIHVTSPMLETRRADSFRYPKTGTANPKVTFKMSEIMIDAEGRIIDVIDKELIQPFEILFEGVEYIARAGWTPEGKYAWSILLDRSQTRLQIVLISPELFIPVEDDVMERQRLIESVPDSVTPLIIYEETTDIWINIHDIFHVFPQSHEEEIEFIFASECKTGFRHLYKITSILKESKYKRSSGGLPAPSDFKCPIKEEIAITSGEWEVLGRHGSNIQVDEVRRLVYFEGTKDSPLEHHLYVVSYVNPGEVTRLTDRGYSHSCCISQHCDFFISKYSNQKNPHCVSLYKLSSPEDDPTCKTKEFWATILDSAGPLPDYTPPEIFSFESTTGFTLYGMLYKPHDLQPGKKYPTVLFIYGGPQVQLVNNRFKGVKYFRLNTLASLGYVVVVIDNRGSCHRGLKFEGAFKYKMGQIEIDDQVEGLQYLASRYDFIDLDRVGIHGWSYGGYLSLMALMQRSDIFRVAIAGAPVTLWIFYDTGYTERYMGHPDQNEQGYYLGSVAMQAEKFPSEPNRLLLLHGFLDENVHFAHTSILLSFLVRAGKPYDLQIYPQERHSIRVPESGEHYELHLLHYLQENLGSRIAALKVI
# Method in brief: as §1
# DPP4 [3] = biological target: T1, DPP4; details: for kobs: n=3
# Experimental: To calculate the reaction rate of covalent bond formation between DPP proteins and inhibitor, kinact, KI and kapp was determined as previously described[30],[51]. […] Enzyme activity was measured for a maximum of 120 min at 30 °C, and fluorescence intensities were then plotted against time. Data was fitted to the following equation: Y=(vi/kobs)*(1−exp(−kobs*X)) using Graph-Pad Prism v10.2.3. The obtained pseudo-first-order rate constant was used to determine the maximum enzyme inhibition rate (kinact) and binding affinity (KI) by fitting the plot of kobs against inhibitor concentration to the following equation: Y=kinact/1+(KI/[I]) . The efficiency of covalent bond formation (kapp) was calculated by the ratio of kinact/KI. All measurements were performed in triplicates and error bars represent standard errors of the fit.
# DPP8 [4] = biological target: T2, DPP8; assay: Time-dependent DPP8 inhibition kinetics (kobs, KI, kinact, kapp); details: for kobs: n=3
# Method in brief: (§2)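 Enzyme (10 nM) received 250 µM GP-AMC together with serially diluted inhibitor, and fluorescence was followed for up to 120 min at 30 °C. Progress curves were fitted for kobs, and kobs versus [I] gave kinact and KI. kapp = kinact/KI; triplicates, errors are standard errors of the fit.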
# DPP9 [5] = biological target: T3, DPP9 (Homo sapiens, UniProt Q86TI2); assay: biochemical; design: purchased Proteros Biostructures GmbH, Germany; details: for DPP9 activity [%]: replicates
# T3 sequence (Q86TI2 whole entry): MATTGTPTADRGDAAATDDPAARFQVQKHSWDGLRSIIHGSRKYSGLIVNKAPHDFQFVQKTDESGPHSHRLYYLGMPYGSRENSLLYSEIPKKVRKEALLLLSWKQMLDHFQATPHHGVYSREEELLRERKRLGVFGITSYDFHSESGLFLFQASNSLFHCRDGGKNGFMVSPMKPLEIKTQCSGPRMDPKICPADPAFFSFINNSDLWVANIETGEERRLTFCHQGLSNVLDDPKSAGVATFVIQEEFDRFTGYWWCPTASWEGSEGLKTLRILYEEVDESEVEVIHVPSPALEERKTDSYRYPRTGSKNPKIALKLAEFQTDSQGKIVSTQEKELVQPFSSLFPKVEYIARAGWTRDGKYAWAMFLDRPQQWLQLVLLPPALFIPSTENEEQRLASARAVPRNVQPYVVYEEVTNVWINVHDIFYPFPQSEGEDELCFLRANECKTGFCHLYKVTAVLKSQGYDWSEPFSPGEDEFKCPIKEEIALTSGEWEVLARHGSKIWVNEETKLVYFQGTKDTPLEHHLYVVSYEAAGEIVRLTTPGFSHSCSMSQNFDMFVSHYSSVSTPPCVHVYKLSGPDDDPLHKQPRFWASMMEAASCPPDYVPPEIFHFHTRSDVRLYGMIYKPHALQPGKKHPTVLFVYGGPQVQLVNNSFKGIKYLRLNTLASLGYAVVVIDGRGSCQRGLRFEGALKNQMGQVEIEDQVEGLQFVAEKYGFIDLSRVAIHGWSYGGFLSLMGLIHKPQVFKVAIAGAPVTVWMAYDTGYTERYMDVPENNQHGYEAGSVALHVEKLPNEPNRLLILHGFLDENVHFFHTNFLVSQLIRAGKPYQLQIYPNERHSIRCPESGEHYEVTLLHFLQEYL
# Method in brief: as §1
# DPP9 [6] = biological target: T3, DPP9; assay: Time-dependent DPP9 inhibition kinetics (kobs, KI, kinact, kapp); design: purchased Proteros Biostructures GmbH, Germany; details: for kobs: n=3
# Method in brief: as §2
# [7] = irreversible inhibition, fit of kobs vs inhibitor concentration
structure (smiles),measurement,setting,value
C#CCCCP(=O)(OCC)N1CCCC(N)C1=O.O=C(O)C(F)(F)F (mixture of isomers) [Compound 9],IC50,"DPP4 [1]; GP-AMC 250 µM, 10 nM enzyme, 45 min pre-incubation at 30 °C, read-out: IC50 DPP4",2.99 ± 0.97 µM
same,DPP4 activity [%],DPP4 [1]; c 1562.5 nM,65.3186% and 69.0903% and 69.4857%
same,DPP4 activity [%],DPP4 [1]; c 3125 nM,56.1551% and 36.739%
same,DPP4 activity [%],DPP4 [1]; c 6250 nM,16.7655% and 22.4037% and 25.1515%
same,DPP4 activity [%],DPP4 [1]; c 25000 nM,0.4601% and 0.7453% and 0.687%
same,DPP4 activity [%],DPP4 [1]; c 50000 nM,0.1815% and 0.2139% and 0.1037%
same,DPP4 activity [%],DPP4 [1]; c 100000 nM,0.1102% and 0.02592% and 0.006479%
same,potency relative to C8-alkyne compound 10,"DPP8 [2]; DPP8/9 IC50, fold more potent",about 20 fold
same,IC50,"DPP8 [2]; GP-AMC 250 µM, 10 nM enzyme, 45 min pre-incubation at 30 °C, read-out: IC50 DPP8",0.668 ± 0.043 µM
same,DPP8 activity [%],DPP8 [2]; c 15.625 nM,88.0116% and 95.2585% and 92.8653%
same,DPP8 activity [%],DPP8 [2]; c 31.25 nM,98.7519% and 93.0125% and 99.7656%
same,DPP8 activity [%],DPP8 [2]; c 62.5 nM,100.514% and 96.8883% and 98.9251%
same,DPP8 activity [%],DPP8 [2]; c 250 nM,89.8086% and 92.0804% and 74.9743%
same,DPP8 activity [%],DPP8 [2]; c 312.5 nM,76.3712% and 75.8504% and 60.7309%
same,DPP8 activity [%],DPP8 [2]; c 500 nM,58.2452% and 66.831% and 55.6678%
same,DPP8 activity [%],DPP8 [2]; c 625 nM,43.0971% and 49.0696% and 43.2225%
same,DPP8 activity [%],DPP8 [2]; c 1000 nM,45.7318% and 41.4388% and 38.9079%
same,DPP8 activity [%],DPP8 [2]; c 1562.5 nM,30.9827% and 31.9714% and 36.8996%
same,DPP8 activity [%],DPP8 [2]; c 2500 nM,6.46% and 6.6893% and 8.361%
same,DPP8 activity [%],DPP8 [2]; c 3125 nM,13.5787% and 24.1011% and 12.0301%
same,DPP8 activity [%],DPP8 [2]; c 5000 nM,1.65% and 1.018% and 2.196%
same,DPP8 activity [%],DPP8 [2]; c 6250 nM,4.899% and 5.3654% and 4.34%
same,DPP8 activity [%],DPP8 [2]; c 10000 nM,0.2086% and 0.07371% and -0.1898%
same,DPP8 activity [%],DPP8 [2]; c 25000 nM,1.765% and 1.4465% and 2.043%
same,DPP8 activity [%],DPP8 [2]; c 50000 nM,2.554% and 1.757% and 1.4548%
same,DPP8 activity [%],DPP8 [2]; c 100000 nM,1.577% and 1.418% and 1.083%
same,potency relative to alkyl compound 5,DPP8 [2]; fold more potent inhibitor,about 20 fold
same,kapp,DPP4 [3]; DPP4,481.66 M⁻¹ s⁻¹
same,kinact best fit,DPP4 [3]; DPP4,0.005372 s⁻¹
same,kobs,"DPP4 [3]; DPP4, c 6250 nM",0.002232 s⁻¹
same,kobs,"DPP4 [3]; DPP4, c 25000 nM",0.003486 s⁻¹
same,kobs,"DPP4 [3]; DPP4, c 50000 nM",0.004579 s⁻¹
same,KI (inactivation),"DPP4 [3]; DPP4, fit of kobs vs inhibitor concentration, read-out: KI best fit",11.2 µM
same,KI (inactivation),"DPP4 [3]; DPP4, read-out: KI best fit",11.2 µM
same,kinact DPP4,DPP4 [3]; [7],0.00537 ± 0.00033 s⁻¹
same,KI (inactivation),"DPP4 [3]; irreversible inhibition, fit of kobs vs inhibitor concentration, read-out: KI DPP4",11.2 µM
same,kapp DPP4,DPP4 [3]; ratio kinact/KI,482 M⁻¹ s⁻¹
same,kapp,DPP8 [4]; DPP8,170.93 M⁻¹ s⁻¹
same,kinact best fit,DPP8 [4]; DPP8,0.0005333 s⁻¹
same,kobs,"DPP8 [4]; DPP8, c 312.5 nM",5.77e-05 s⁻¹
same,kobs,"DPP8 [4]; DPP8, c 625 nM",8.71e-05 s⁻¹
same,kobs,"DPP8 [4]; DPP8, c 2500 nM",0.000239 s⁻¹
same,KI (inactivation),"DPP8 [4]; DPP8, fit of kobs vs inhibitor concentration, read-out: KI best fit",3.12 µM
same,KI (inactivation),"DPP8 [4]; DPP8, read-out: KI best fit",3.12 µM
same,kinact DPP8,DPP8 [4]; [7],0.00053 ± 0.00004 s⁻¹
same,KI (inactivation),"DPP8 [4]; irreversible inhibition, fit of kobs vs inhibitor concentration, read-out: KI DPP8",3.12 µM
same,kapp DPP8,DPP8 [4]; ratio kinact/KI,171 M⁻¹ s⁻¹
same,IC50,"DPP9 [5]; GP-AMC 250 µM, 10 nM enzyme, 45 min pre-incubation at 30 °C, read-out: IC50 DPP9",1.57 ± 0.092 µM
same,DPP9 activity [%],DPP9 [5]; c 156.25 nM,96.2584% and 100.319% and 101.85%
same,DPP9 activity [%],DPP9 [5]; c 312.5 nM,100.858% and 91.3501% and 92.0123%
same,DPP9 activity [%],DPP9 [5]; c 625 nM,84.7331% and 76.9427% and 84.4618%
same,DPP9 activity [%],DPP9 [5]; c 1562.5 nM,49.8961% and 58.6041% and 49.6299%
same,DPP9 activity [%],DPP9 [5]; c 2500 nM,31.5472% and 27.5156% and 32.2809%
same,DPP9 activity [%],DPP9 [5]; c 3125 nM,24.6772% and 31.33% and 43.1829%
same,DPP9 activity [%],DPP9 [5]; c 5000 nM,13.8796% and 12.6206% and 14.7121%
same,DPP9 activity [%],DPP9 [5]; c 6250 nM,10.217% and 12.6398% and 8.944%
same,DPP9 activity [%],DPP9 [5]; c 10000 nM,3.977% and 3.748% and 3.468%
same,DPP9 activity [%],DPP9 [5]; c 25000 nM,1.6052% and 1.507% and 1.185%
same,DPP9 activity [%],DPP9 [5]; c 50000 nM,0.4873% and 0.1919% and 0.2191%
same,DPP9 activity [%],DPP9 [5]; c 100000 nM,-0.1705% and -0.1127% and 0.03998%
same,kapp,DPP9 [6]; DPP9,68.49 M⁻¹ s⁻¹
same,kinact best fit,DPP9 [6]; DPP9,0.0003473 s⁻¹
same,kobs,"DPP9 [6]; DPP9, c 312.5 nM",2.92e-05 s⁻¹
same,kobs,"DPP9 [6]; DPP9, c 625 nM",4.78e-05 s⁻¹
same,kobs,"DPP9 [6]; DPP9, c 2500 nM",0.000103 s⁻¹
same,KI (inactivation),"DPP9 [6]; DPP9, fit of kobs vs inhibitor concentration, read-out: KI best fit",5.07 µM
same,KI (inactivation),"DPP9 [6]; DPP9, read-out: KI best fit",5.07 µM
same,kinact DPP9,DPP9 [6]; [7],0.00035 ± 0.00007 s⁻¹
same,KI (inactivation),"DPP9 [6]; irreversible inhibition, fit of kobs vs inhibitor concentration, read-out: KI DPP9",5.07 µM
same,kapp DPP9,DPP9 [6]; ratio kinact/KI,68 M⁻¹ s⁻¹
